Like-named read-outs stand apart in the source and are kept apart here.
Target: T1, BRD9 (Homo sapiens, UniProt Q9H8M2)
T1 sequence (Q9H8M2 1-597): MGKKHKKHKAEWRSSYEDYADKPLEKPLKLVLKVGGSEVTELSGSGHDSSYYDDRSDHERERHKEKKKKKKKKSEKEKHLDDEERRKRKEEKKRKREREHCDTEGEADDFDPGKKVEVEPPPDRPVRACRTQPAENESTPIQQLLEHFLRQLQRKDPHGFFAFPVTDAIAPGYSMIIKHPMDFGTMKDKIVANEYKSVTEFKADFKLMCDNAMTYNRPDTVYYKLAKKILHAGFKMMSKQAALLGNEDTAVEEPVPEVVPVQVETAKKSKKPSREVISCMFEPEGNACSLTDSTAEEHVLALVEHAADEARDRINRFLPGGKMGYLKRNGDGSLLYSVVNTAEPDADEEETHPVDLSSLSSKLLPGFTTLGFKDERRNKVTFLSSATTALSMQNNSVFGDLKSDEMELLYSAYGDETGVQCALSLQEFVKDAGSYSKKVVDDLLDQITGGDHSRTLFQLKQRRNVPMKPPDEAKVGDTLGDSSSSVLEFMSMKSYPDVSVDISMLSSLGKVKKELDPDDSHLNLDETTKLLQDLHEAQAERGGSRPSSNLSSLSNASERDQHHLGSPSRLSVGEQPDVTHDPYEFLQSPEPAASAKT
Experiment: Degradation of BRD9 (IF), immunofluorescence in MV4-11 cells, 24 hours (Assay Protocol 2)
Type: cell-based
Set-up: A suspension of MV4-11 cells (ATCC CRL-9591) was prepared; host or cells: MV4-11
Details: BRD9 degradation; for DC50: Assay protocol 2, read-out: DC50
Method in brief: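 MV4-11 cells treated with compound 24 h at 37° C., then fixed, permeabilised and immunostained for BRD9 (anti-BRD9 E4Q3F, Alexa 647 secondary, Hoechst counterstain). High-content imaging quantified nuclear BRD9 signal; % BRD9 remaining normalised to DMSO and 100 nM CFT-8634 controls.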

[1] = MV4-11, Assay protocol 2, read-out: Dmax

Compound | DC50 [nM] | Dmax [1] [%] | Dmax (MV4-11, Table 4, determined according to Assay Protocol 2, read-out: Dmax^2) [%]
COc1cc(-c2cn(C)c(=O)c(C)c2C)cc(OC)c1CN1CCN(Cc2cccc3c2CCN(C(=O)/C(C#N)=C/C(C)(C)CF)C3C)C2(CC2)C1 (single isomer, unassigned) [Compound B195, (E/Z)-2-(5-((7-(2,6-dimethoxy-4-(1,4,5-trimethyl-6-oxo-1,6-dihydropyridin-3-yl)benzyl)-4,7-diazaspiro[2.5]octan-4-yl)methyl)-1-methyl-1,2,3,4-tetrahydroisoquinoline-2-carbonyl)-5-fluoro-4,4-dimethylpent-2-enenitrile] | < 1.25 | > 75 | –
CC[C@H]1c2cccc(CN3CCN(Cc4c(OC)cc(-c5cn(C)c(=O)c(C)c5C)cc4OC)C4(CC4)C3)c2CCN1C(=O)/C(C#N)=C/C(C)(C)CF (single isomer, unassigned) [Compound C104, (E/Z)-2-(5-((4-(2,6-dimethoxy-4-(1,4,5-trimethyl-6-oxo-1,6-dihydropyridin-3-yl)benzyl)-4,7-diazaspiro[2.5]octan-7-yl)methyl)-1-ethyl-1,2,3,4-tetrahydroisoquinoline-2-carbonyl)-6-fluoro-4,4-dimethylpent-2-enenitrile] | 25 to 1000 | 40 to 70 | –
COc1cc(-c2cn(C)c(=O)c(C)c2C)cc(OC)c1CN1CC(Cc2cccc3c2CCN(C(=O)/C(C#N)=C/C(C)(C)C)C3C)C1 (centres unmarked) [Compound C49] | – | 40 to 70 | –
CC[C@H]1c2cccc(CN3CCN(Cc4c(OC)cc(-c5cn(C)c(=O)c(C)c5C)cc4OC)C4(CC4)C3)c2CCN1C(=O)/C(C#N)=C/C(C)(C)C (single isomer, unassigned) [Compound C90, (E/Z)-2-(5-((4-(2,6-dimethoxy-4-(1,4,5-trimethyl-6-oxo-1,6-dihydropyridin-3-yl)benzyl)-4,7-diazaspiro[2.5]octan-7-yl)methyl)-1-ethyl-1,2,3,4-tetrahydroisoquinoline-2-carbonyl)-4,4-dimethylpent-2-enenitrile] | > 1000 | 40 to 70 | –
COc1cc(-c2cn(C)c(=O)c(C)c2C)cc(OC)c1CN1CCN(Cc2cccc3c2CCN(C(=O)/C(C#N)=C/C(C)(C)CF)C3C(C)C)C2(CC2)C1 (mixture of isomers) [Compound C24, (E/Z)-2-(5-((7-(2,6-dimethoxy-4-(1,4,5-trimethyl-6-oxo-1,6-dihydropyridin-3-yl)benzyl)-4,7-diazaspiro[2.5]octan-4-yl)methyl)-1-isopropyl-1,2,3,4-tetrahydroisoquinoline-2-carbonyl)-5-fluoro-4,4-dimethylpent-2-enenitrile] | < 1.25 | > 75 | –
COc1cc(-c2cn(C)c(=O)c(C)c2C)cc(OC)c1CN1CCN(Cc2ccc3c(c2)[C@H](C(C)C)N(C(=O)/C(C#N)=C/C(C)(C)CF)CC3)C2(CC2)C1 (single isomer, unassigned) [Compound C96, (E/Z)-2-(7-((7-(2,6-dimethoxy-4-(1,4,5-trimethyl-6-oxo-1,6-dihydropyridin-3-yl)benzyl)-4,7-diazaspiro[2.5]octan-4-yl)methyl)-1-isopropyl-1,2,3,4-tetrahydroisoquinoline-2-carbonyl)-5-fluoro 4,4-dimethylpent-2-enenitrile] | 1.25 to 10 | > 75 | –
COc1cc(-c2cn(C)c(=O)c(C)c2C)cc(OC)c1CN1CCC(Oc2ccc3c(c2)[C@H](C)N(C(=O)/C(C#N)=C/C(C)(C)C)CC3)CC1 (single isomer, unassigned) [Compound C73, (E/Z)-2-(7-((1-(2,6-dimethoxy-4-(1,4,5-trimethyl-6-oxo-1,6-dihydropyridin-3-yl)benzyl)piperidin-4-yl)oxy)-1-methyl-1,2,3,4-tetrahydroisoquinoline-2-carbonyl)-4,4-dimethylpent-2-enenitrile] | 1.25 to 10 | > 75 | –
CC[C@@H]1CN(Cc2c(OC)cc(-c3cn(C)c(=O)c(C)c3C)cc2OC)CCN1Cc1cccc2c1CCN(C(=O)/C(C#N)=C/C(C)(C)C)C2C (mixture of isomers) [Compound B139, (E/Z)-2-(5-(((R)-4-(2,6-dimethoxy-4-(1,4,5-trimethyl-6-oxo-1,6-dihydropyridin-3-yl)benzyl)-2-ethylpiperazin-1-yl)methyl)-1-methyl-1,2,3,4-tetrahydroisoquinoline-2-carbonyl)-4,4-dimethylpent-2-enenitrile] | 10 to 25 | 70 to 75 | –
COc1ccc(/C=C(\C#N)C(=O)N2CCc3c(CN4CCN(Cc5c(OC)cc(-c6cn(C)c(=O)c(C)c6C)cc5OC)CC4)cccc3C2C)cn1 (mixture of isomers) [Compound B71, (E/Z)-2-(5-((4-(2,6-dimethoxy-4-(1,4,5-trimethyl-6-ox0-1,6-dihydropyridin-3-yl)benzyl)piperazin-1-yl)methyl)-1-methyl-1,2,3,4-tetrahydroisoquinoline-2-carbonyl)-3-(6-methoxypyridin-3-yl)acrylonitrile] | 1.25 to 10 | 40 to 70 | –
COc1cc(-c2cn(C)c(=O)c(C)c2C)cc(OC)c1CN1CCC2(CCN(c3ccc4c(c3)[C@H](C)N(C(=O)/C(C#N)=C/C(C)(C)C)CC4)C2)C1 (single isomer, unassigned) [Compound C52] | 10 to 25 | 40 to 70 | –
COc1cc(-c2cn(C)c(=O)c(C)c2C)cc(OC)c1CN1CCN(Cc2cccc3c2CCN(C(=O)/C(C#N)=C/C2(C)CCCC2)C3C)C2(CC2)C1 (mixture of isomers) [Compound B145, (E/Z)-2-(5-((7-(2,6-dimethoxy-4-(1,4,5-trimethyl-6-oxo-1,6-dihydropyridin-3-yl)benzyl)-4,7-diazaspiro[2.5]octan-4-yl)methyl)-1-methyl-1,2,3,4-tetrahydroisoquinoline-2-carbonyl)-3-(1-methylcyclopentyl)acrylonitrile] | < 1.25 | > 75 | –
COc1cc(-c2cn(C)c(=O)c(C)c2C)cc(OC)c1CN1C2CC1CN(C(=O)/C(C#N)=C/C1(F)CC1)C2 (mixture of isomers) [Compound B189, (E/Z)-2-(6-(2,6-dimethoxy-4-(1,4,5-trimethyl-6-oxo-1,6-dihydropyridin-3-yl)benzyl)-3,6-diazabicyclo[3.1.1]heptane-3-carbonyl)-3-(1-fluorocyclopropyl)acrylonitrile] | 1.25 to 10 | > 75 | –
COc1cc(-c2cn(C)c(=O)c(C)c2C)cc(OC)c1CN1C[C@H](C)N(Cc2cccc3c2CCN(C(=O)/C(C#N)=C/c2cccc(Br)n2)C3C)[C@@H](C)C1 (mixture of isomers) [Compound B110, (E/Z)-3-(6-bromopyridin-2-yl)-2-(5-(((2S,6S)-4-(2,6-dimethoxy-4-(1,4,5-trimethyl-6-oxo-1,6-dihydropyridin-3-yl)benzyl)-2,6-dimethylpiperazin-1-yl)methyl)-1-methyl-1,2,3,4-tetrahydroisoquinoline-2-carbonyl)acrylonitrile] | 25 to 1000 | 40 to 70 | –
COc1cc(-c2cn(C)c(=O)c(C)c2C)cc(OC)c1CN1CCN(Cc2cccc3c2CCN(C(=O)/C(C#N)=C/C(C)(C)CF)C3C(C)C)C2(CC2)C1 (single isomer, unassigned) [Compound C76, (E/Z)-2-(5-((7-(2,6-dimethoxy-4-(1,4,5-trimethyl-6-oxo-1,6-dihydropyridin-3-yl)benzyl)-4,7-diazaspiro[2.5]octan-4-yl)methyl)-1-isopropyl-1,2,3,4-tetrahydroisoquinoline-2-carbonyl)-5-fluoro-4,4-dimethylpent-2-enenitrile] | 1.25 to 10 | 70 to 75 | –
COc1cc(-c2cn(C)c(=O)c(C)c2C)cc(OC)c1CN1CCN(Cc2cccc3c2CCN(C(=O)/C(C#N)=C/C(C)(C)C)C3C)CC1(C)C (mixture of isomers) [Compound B159, (E/Z)-2-(5-((4-(2,6-dimethoxy-4-(1,4,5-trimethyl-6-oxo-1,6-dihydropyridin-3-yl)benzyl)-3,3-dimethylpiperazin-1-yl)methyl)-1-methyl-1,2,3,4-tetrahydroisoquinoline-2-carbonyl)-4,4-dimethylpent-2-enenitrile] | < 1.25 | 40 to 70 | –
COc1cc(-c2cn(C)c(=O)c(C)c2C)cc(OC)c1CN(C)C1CCN(C(=O)/C(C#N)=C/c2cccc(C(F)(F)F)n2)CC1 [BRD9aa, (E/Z)-2-(4-((2,6-dimethoxy-4-(1,4,5-trimethyl-6-oxo-1,6-dihydropyridin-3-yl)benzyl)(methyl)amino)piperidine-1-carbonyl)-3-(6-(trifluoromethyl)pyridin-2-yl)acrylonitrile] | – | – | > 70
COc1cc(-c2cn(C)c(=O)c(C)c2C)cc(OC)c1CN1C[C@@H](C)N(C(=O)/C(C#N)=C/C(C)(C)C)C[C@@H]1C (mixture of isomers) [Compound B190, (E/Z)-2-((2R,5S)-4-(2,6-dimethoxy-4-(1,4,5-trimethyl-6-oxo-1,6-dihydropyridin-3-yl)benzyl)-2,6-dimethylpiperazine-1-carbonyl)-4,4-dimethylpent-2-enenitrile] | 25 to 1000 | 40 to 70 | –

Reference: patent US20260092061A1, “COMPOUNDS FOR TARGETED PROTEIN DEGRADATION” (Amphista Therapeutics Limited, priority 2022, published 2026)
